Source: publication PMC10287695, “Non-covalent inhibitors of thioredoxin glutathione reductase with schistosomicidal activity in vivo” (Nature Communications, 2023)
Several values for one entry are separate records, joined by “and”; a condition that tells them apart may be missing. Identical values can stand only once.

Experiments:
[1] = target: T1, PfTrxR (Plasmodium falciparum, UniProt Q25861); assay: P. falciparum TrxR enzyme inhibition; format: biochemical
T1 construct: 6-His (N); made in house; host or cells: E. coli BL21 (DE3)
T1 sequence (Q25861 1-541): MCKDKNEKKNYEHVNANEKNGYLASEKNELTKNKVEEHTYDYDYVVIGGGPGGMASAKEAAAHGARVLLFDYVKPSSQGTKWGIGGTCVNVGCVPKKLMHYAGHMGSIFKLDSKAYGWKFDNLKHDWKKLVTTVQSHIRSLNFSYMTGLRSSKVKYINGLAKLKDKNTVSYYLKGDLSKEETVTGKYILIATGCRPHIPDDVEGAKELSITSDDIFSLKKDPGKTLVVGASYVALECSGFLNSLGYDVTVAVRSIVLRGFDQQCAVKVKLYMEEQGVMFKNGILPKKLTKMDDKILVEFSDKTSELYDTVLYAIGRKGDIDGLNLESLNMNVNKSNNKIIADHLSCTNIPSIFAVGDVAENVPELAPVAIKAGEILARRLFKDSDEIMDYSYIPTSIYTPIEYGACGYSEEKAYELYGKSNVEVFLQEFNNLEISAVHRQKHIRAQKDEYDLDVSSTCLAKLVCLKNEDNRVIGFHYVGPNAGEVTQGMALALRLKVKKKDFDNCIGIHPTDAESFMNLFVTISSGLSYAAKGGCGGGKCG
Procedure: (§1) Recombinant TGR, human TrxR1, B. malayi (Bm)TrxR and human GR proteins were expressed and purified as described[20],[69],[79]. The codon optimized sequence for P. falciparum (PfTrxR, https://www.ncbi.nlm.nih.gov/protein/CAA60574.1/) with an N-terminal 6-His tag was synthesized and inserted into pET15b (GenScript) and expressed in BL21 (DE3) cells and purified as described for human GR[20]. TGR and TrxR enzyme inhibition assays were performed in triplicate at 25 °C as described[20] in 0.1 M potassium phosphate (pH 7.4), 10 mM EDTA, 100 µM NADPH and 0.01% Tween-20. TGR, human TrxR1 and BmTrxR (all at 4 nM) and PfTrxR (50 nM) were preincubated with the compounds for 15 min. The reaction was started with addition of an equal volume of DTNB (6 mM) and NADPH (100 µM) and the increase in A412 during the first 3 min was recorded. […] The reaction was preincubated for 15 min. Activity was initiated with the addition of 1 mM GSSG and 100 μM NADPH and initial rates of NADPH oxidation were monitored at 340 nm. The reactions were done in triplicate. The IC50 was calculated in GraphPad Prism.

[2] = target: BmTrxR (Brugia malayi, UniProt A0A1I9G0T9); assay: B. malayi TrxR enzyme inhibition; format: biochemical
Procedure: Recombinant TGR, human TrxR1, B. malayi (Bm)TrxR and human GR proteins were expressed and purified as described[20],[69],[79]. The codon optimized sequence for P. falciparum (PfTrxR, https://www.ncbi.nlm.nih.gov/protein/CAA60574.1/) with an N-terminal 6-His tag was synthesized and inserted into pET15b (GenScript) and expressed in BL21 (DE3) cells and purified as described for human GR[20]. […] The reaction was started with addition of an equal volume of DTNB (6 mM) and NADPH (100 µM) and the increase in A412 during the first 3 min was recorded. […] Activity was initiated with the addition of 1 mM GSSG and 100 μM NADPH and initial rates of NADPH oxidation were monitored at 340 nm. The reactions were done in triplicate. The IC50 was calculated in GraphPad Prism.

[3] = test system: S. mansoni adult worms; assay: GSH/GSSG ratio in ex vivo adult worms; format: cell-based; conditions: 1 hr; second data set (r136-144), baseline 63.5617, DMSO 63.4928
Procedure: We assessed GSH/GSSG levels experimentally by treating S. mansoni adult worms with 50 µM of compounds, or respective controls 5 µM Auranofin, 50 µM PZQ or 50 µM MZM and 0.01% DMSO for 3 h. Worm homogenate was prepared by washing three times with PBS to remove residual compounds and ten volumes of ice cold 5% sulfosalicylic acid was added. Worms were manually homogenized on ice using VWR Pellet Mixer Adaptor. The worm suspension was centrifuged at 14000 × g, 4 °C for 10 min and the acid supernatants transferred. An equal volume of ice-cold neutralization buffer (500 mM HEPES, pH 8.0) was added to the acid supernatants.
GSH/GSSG assay was performed by diluting the acid supernatant (5-fold) with ice-cold dilution buffer (250 mM HEPES, pH 7.5). Using white opaque luminescence plate on ice, 25 µl of the diluted worm acid supernatant was added each well in triplicates. Total glutathione lysis reagent and GSSG lysis reagent, which contains alkylating agent N-ethylmaleimide (25 mM) were prepared following manufactures protocol and added to respective wells along with blank for background. Total glutathione lysis reagent or oxidized glutathione lysis reagent (25 µl) was added to respective wells containing worm acid supernatants and the plate was shaken for 5 min. Luciferin generation reagent (LGR) (50 µl) was added to all wells, briefly shaken and incubated at room temperature for 30 min. Luciferin detection reagent (LDR) (100 µl) was added to all wells, briefly shaken and incubated for 15 min at room temperature and the luminescence measured using microplate imager (BioTek Cytation3). GSH/GSSH ratio for DMSO control and compounds were calculated using (Net DMSO total glutathione RFU) – (Net DMSO GSSG RFU)/ (Net DMSO GSSG RFU)/2 and (Net inhibitor total glutathione RFU) – (Net inhibitor GSSG RFU)/ (Net inhibitor GSSG RFU)/2 respectively.

[4] = target: T2, Human GR (Homo sapiens, UniProt P00390); assay: Human GR enzyme inhibition (GSSG reduction, NADPH oxidation); format: biochemical; conditions: 66.7 µM
T2 construct: made in house
T2 sequence (P00390 44-522): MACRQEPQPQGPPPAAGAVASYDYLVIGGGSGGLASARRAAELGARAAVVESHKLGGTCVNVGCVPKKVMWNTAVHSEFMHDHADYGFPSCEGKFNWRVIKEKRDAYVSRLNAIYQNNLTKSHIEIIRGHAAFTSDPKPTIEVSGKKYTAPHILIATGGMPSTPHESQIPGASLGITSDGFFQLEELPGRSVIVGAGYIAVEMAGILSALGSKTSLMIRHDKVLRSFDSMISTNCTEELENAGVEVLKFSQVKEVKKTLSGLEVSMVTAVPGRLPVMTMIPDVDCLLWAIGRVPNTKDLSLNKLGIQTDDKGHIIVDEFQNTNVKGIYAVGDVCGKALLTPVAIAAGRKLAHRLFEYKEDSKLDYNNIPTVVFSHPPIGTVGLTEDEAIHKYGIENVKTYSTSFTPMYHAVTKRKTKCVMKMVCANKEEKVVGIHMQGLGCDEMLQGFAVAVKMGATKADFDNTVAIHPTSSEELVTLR
Procedure: as §1, with “The reaction was preincubated for 15 min.” left out

[5] = target: T3, TGR (Schistosoma mansoni, UniProt Q962Y6, X597U); assay: Superoxide production (pyrogallol red); format: biochemical, S. mansoni; conditions: replicates
T3 construct: made in house
Procedure: The production of superoxide by TGR was determined by monitoring reaction of superoxide with pyrogallol red[80]. Briefly, a 1 ml reaction mix (500 nM TGR, 100 µM NADPH, and 20–50 µM inhibitor) was incubated at room temperature for 30 min for fast inhibitors, or 2 h for slow inhibitors. For irreversible inhibitor controls TRi-1 (synthesized in house as reported[45]), Stattic (Cayman Chemical), and AF (Cayman Chemical), the samples were desalted using a Zeba spin desalting column. 100 µL of sample was combined with pyrogallol buffer with and without superoxide dismutase (SOD) (50 µM pyrogallol red, 300 µM NADPH; ± 10 units SOD). The reaction was measured at A340 and A540 simultaneously for 2 h.

[6] = target: T3, TGR; assay: NADPH consumption (oxidase activity); format: biochemical, S. mansoni
Procedure: TRi-1, Stattic (both at 50 µM) and AF (20 µM) were incubated with 1 ml of 500 nM TGR and 100 µM NADPH in TGR reaction buffer for 30 min. The samples were desalted using a Zeba spin desalting column (Thermo Fisher Scientific) and 100 µl of the desalted sample was combined with 100 µl of 100 µM NADPH. NADPH consumption was monitored at 340 nm in triplicate. Compounds 1, 4, 6, and 7 (50 µM) were tested in the same fashion without the desalting step and with a first incubation step of 30 min for 6 and 7 and 2 h for 1 and 4.

[7] = target: T4, TGR (Schistosoma mansoni, UniProt Q962Y6); assay: Reversibility by jump dilution; format: biochemical
T4 construct: made in house
T4 sequence (Q962Y6 1-598): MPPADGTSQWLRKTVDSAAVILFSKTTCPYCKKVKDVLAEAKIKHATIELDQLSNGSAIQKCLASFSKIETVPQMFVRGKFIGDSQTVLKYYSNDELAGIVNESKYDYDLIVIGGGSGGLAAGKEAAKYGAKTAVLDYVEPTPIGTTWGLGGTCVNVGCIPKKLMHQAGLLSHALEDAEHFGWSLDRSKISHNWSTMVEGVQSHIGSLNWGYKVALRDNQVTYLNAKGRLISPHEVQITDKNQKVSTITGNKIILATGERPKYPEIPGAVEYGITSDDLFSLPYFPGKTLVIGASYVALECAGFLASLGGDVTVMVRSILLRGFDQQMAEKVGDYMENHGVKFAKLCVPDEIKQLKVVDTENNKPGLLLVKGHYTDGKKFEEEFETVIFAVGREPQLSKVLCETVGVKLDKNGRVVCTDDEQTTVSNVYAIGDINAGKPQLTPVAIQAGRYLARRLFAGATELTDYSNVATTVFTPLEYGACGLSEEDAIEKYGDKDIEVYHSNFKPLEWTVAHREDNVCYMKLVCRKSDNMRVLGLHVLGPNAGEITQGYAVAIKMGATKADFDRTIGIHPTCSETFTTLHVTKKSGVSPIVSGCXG
Procedure: A reaction of 370 nM TGR, 100 µM NADPH, and 250 µM inhibitor was incubated for 15 min at room temperature. A 100x dilution of the reaction was made and the activity was determined immediately and after 60 min.

[8] = D0: diluted 1:100, activity determined immediately, list for plotting
[9] = D60: diluted 1:100, activity determined after 60 min, list for plotting

Sequence of BmTrxR (A0A1I9G0T9 entry or part of it, added parts left off): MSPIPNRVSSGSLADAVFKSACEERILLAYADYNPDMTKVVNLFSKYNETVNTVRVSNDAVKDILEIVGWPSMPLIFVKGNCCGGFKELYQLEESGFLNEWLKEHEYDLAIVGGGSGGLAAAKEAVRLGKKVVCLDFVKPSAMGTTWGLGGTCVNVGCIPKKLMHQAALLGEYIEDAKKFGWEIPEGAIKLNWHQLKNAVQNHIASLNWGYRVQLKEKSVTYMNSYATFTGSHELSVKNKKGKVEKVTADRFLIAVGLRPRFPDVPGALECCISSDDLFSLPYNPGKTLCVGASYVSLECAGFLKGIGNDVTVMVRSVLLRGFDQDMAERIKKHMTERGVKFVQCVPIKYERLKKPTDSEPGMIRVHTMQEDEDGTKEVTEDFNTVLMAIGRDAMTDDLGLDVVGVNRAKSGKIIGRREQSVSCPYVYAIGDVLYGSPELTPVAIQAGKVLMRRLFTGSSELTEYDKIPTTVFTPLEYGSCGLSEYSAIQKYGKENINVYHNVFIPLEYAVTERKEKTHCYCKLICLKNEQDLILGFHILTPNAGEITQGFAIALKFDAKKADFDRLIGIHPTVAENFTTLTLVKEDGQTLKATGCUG

C[C@@H]1[C@H]2C[C@@H](C[C@H]1NC(=O)Cc1nc3ccccc3n1C1CCCCC1)C2(C)C [Compound 10]
IC50 [1]: 32.9 ± 4.46 µM | inhibition at 1 µM [1]: 3.2% | inhibition at 5 µM [1]: 6.15% | inhibition at 15 µM [1]: 29.7% | inhibition at 30 µM [1]: 48.5% | inhibition at 66.7 µM [1]: 66.9% | inhibition at 1 µM ([2]; BmTrxR, 1 µM compound, mean of 3 replicates): 27.9% | inhibition at 5 µM ([2]; BmTrxR, 5 µM compound, mean of 3 replicates): 68% | inhibition at 15 µM ([2]; BmTrxR, 15 µM compound, mean of 3 replicates): 100% | inhibition at 30 µM ([2]; BmTrxR, 30 µM compound, mean of 3 replicates): 108% | inhibition at 66.7 µM ([2]; BmTrxR, 66.7 µM compound, mean of 3 replicates): 106% | IC50 ([2]; read-out: BmTrxR IC50): 2.5 µM | Ratio GSH/GSSG [3]: 63.3816 | Human GR (inhibition at 66.7 µM) [4]: n.i.

O=[N+]([O-])c1ccc2c(c1)S(=O)(=O)C=C2 [Stattic, reference compound]
Superoxide production, Pyrogallol red consumption monitored ΔA540 ([5]; condition not given): -0.005958 and -0.005844 and -0.006065 | Superoxide production, Pyrogallol red consumption monitored ΔA540 ([5]; second of the two columns per substance (condition not given)): -6.328e-5 and -6.968e-5 and -6.397e-5 | NADPH consumption by TGR after exposure [6]: converted TGR to a pro-oxidant enzyme | NADPH consumption (rate/ΔOD340) ([6]; replicates): -0.002179 and -0.002159 and -0.002209 | reversibility of TGR inhibition ([7]; 250 µM inhibitor, 100-fold jump dilution): irreversible | % Activity (ID list), D0 [7, 8]: 1.1% and 0.9% and -0.249% | % Inhibition (ID list), D0 [7, 8]: 98.9% and 99.1% and 100.2% | % Activity (ID list), D60 [7, 9]: -0.15% and 2.9% and 1.8% | % Inhibition (ID list), D60 [7, 9]: 100.1% and 97.1% and 98.2% | % Activity, 0 min ([7]; [0, D0]: 15 min preincubation inhibitor + TGR + NADPH, diluted 1:100, then activity determined immediately, relative to DMSO): 1.12% and 0.8821% and -0.2494% | % Activity, 60 min ([7]; [60, D60]: 15 min preincubation inhibitor + TGR + NADPH, diluted 1:100, then activity determined after 60 min, relative to DMSO): -0.1498% and 2.864% and 1.829% | Inhibitor (rate), -15 ([7]; [-15]: 15 min preincubation inhibitor + TGR + NADPH, then activity determined, raw rate, replicates): 0.0007 and 0.0003 and -0.0004 | % Activity, -15 ([7]; [-15]: 15 min preincubation inhibitor + TGR + NADPH, then activity determined, relative to DMSO, replicates): 1.077% and 0.4412% and -0.5874% | % Inhibition (ID list) ([7]; before dilution (-15), list for plotting): 100.5% and 100.0% and 98.7%
